From patent US20260315464A1, “COMPOSITIONS, METHODS, AND SYSTEMS FOR MODULATING SPLICING OF MSH3” (REVIR THERAPEUTICS, INC., priority 2023, published 2026) come the findings set out here.

In general, EC50 refers to the midpoint of the concentration-response curve. Low readings indicate a more potent agent, high ones a less potent agent.

Molecules are shown by their SMILES.

This test has as its system MSH3. Nature of the test: QPCR assay for levels of MSH3 upon compound treatment in HEK293T or AD293 cells (fold-change of MSH3 transcript, EC50 of MSH3 downregulation; total MSH3 exons 13/14, exons 20/21; Table 8). The conditions noted are these: for mrna remaining at 1 µM / mrna remaining at 10 µM: Homo sapiens, fold-change of the MSH3 transcript, normalized to GAPDH; for mrna remaining at 1 µM: 1 μM compound; for mrna remaining at 10 µM: 10 μM compound; for EC50: EC50 of MSH3 downregulation, XtalPi. Format: cell-based. The procedure, abridged:
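HEK293T or AD293 cells were treated at 1 μM and […]; RNA-to-cDNA qPCR used TaqMan assays for total MSH3 (exons 13/14, exons 20/21) and poison-exon junctions exon 13/PE14A and exon 20/PE21A. Transcript levels were normalized to GAPDH.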

As for `Cc1nn(C)nc1-c1cc(C#N)c2c(c1)C(=O)N(c1ccc(N(C)[C@H]3C[C@]4(C)CC[C@](C)(C3)N4)nn1)C2` [Compound 676, 6-(2,5-dimethyl-2H-1,2,3-triazol-4-yl)-2-(6-(((1R,3s,5S)-1,5-dimethyl-8-azabicyclo[3.2.1]octan-3-yl)(methyl)amino)pyridazin-3-yl)-1-oxoisoindoline-4-carbonitrile], the mrna remaining at 1 µM was determined as 48% and the mrna remaining at 10 µM came to 17%.

As to `COc1cc(-c2nn(C)nc2C)cc2c1CN(c1ccc(OC3CC(C)(C)NC(C)(C)C3)nn1)C2=O` [Compound 688, 6-(2,5-dimethyl-2H-1,2,3-triazol-4-yl)-4-methoxy-2-(6-((2,2,6,6-tetramethylpiperidin-4-yl)oxy)pyridazin-3-yl)isoindolin-1-one], the mrna remaining at 1 µM was found to be 123% and the mrna remaining at 10 µM was 86%.

As to `CN(c1ccc(N2Cc3ncc(-c4nn(C)nc4Cl)cc3C2=O)nn1)[C@H]1C[C@]2(C)CC[C@](C)(C1)N2` [Compound 589, 3-(5-chloro-2-methyl-2H-1,2,3-triazol-4-yl)-6-(6-(((1R,3s,5S)-1,5-dimethyl-8-azabicyclo[3.2.1]octan-3-yl)(methyl)amino)pyridazin-3-yl)-6,7-dihydro-5H-pyrrolo[3,4-b]pyridin-5-one], the 50% effective concentration (EC50) stood at 349 nM, the mrna remaining at 1 µM amounted to 20% and the mrna remaining at 10 µM amounted to 11%.

Regarding `Cc1nn(C)cc1-c1cnc2c(n1)C(=O)N(c1ccc(O[C@H]3C[C@]4(C)CC[C@](C)(C3)N4)nn1)C2` [Compound 622, 3-(1,3-dimethyl-1H-pyrazol-4-yl)-6-(6-(((1R,3s,5S)-1,5-dimethyl-8-azabicyclo[3.2.1]octan-3-yl)oxy)pyridazin-3-yl)-6,7-dihydro-5H-pyrrolo[3,4-b]pyrazin-5-one], the mrna remaining at 1 µM stood at 76% and the mrna remaining at 10 µM was 30%.

In the case of `Cc1nn(C)nc1-c1cc(Cl)c2c(c1)C(=O)N(c1ccc(N(C)[C@H]3C[C@]4(C)CC[C@](C)(C3)N4)nn1)C2` [Compound 660, 4-chloro-6-(2,5-dimethyl-2H-1,2,3-triazol-4-yl)-2-(6-(((1R,3s,5S)-1,5-dimethyl-8-azabicyclo[3.2.1]octan-3-yl)(methyl)amino)pyridazin-3-yl)isoindolin-1-one], the mrna remaining at 1 µM worked out at 101% and the mrna remaining at 10 µM came out at 50%.

In the case of `CN(c1ccc(N2Cc3ncc(-c4cnn(C)c4)cc3C2=O)nn1)C1CC(C)(C)NC(C)(C)C1` [Compound 148, 6-(6-(methyl(2,2,6,6-tetramethylpiperidin-4-yl)amino)pyridazin-3-yl)-3-(1-methyl-1H-pyrazol-4-yl)-6,7-dihydro-5H-pyrrolo[3,4-b]pyridin-5-one], the mrna remaining at 1 µM amounted to 103% and the mrna remaining at 10 µM was found to be 40%.

As for `Cc1nn(C)cc1-c1cc2c(cn1)CN(c1ccc(OC3CC(C)(C)NC(C)(C)C3)nn1)C2=O` [Compound 76, 6-(1,3-dimethyl-1H-pyrazol-4-yl)-2-(6-((2,2,6,6-tetramethylpiperidin-4-yl)oxy)pyridazin-3-yl)-2,3-dihydro-1H-pyrrolo[3,4-c]pyridin-1-one], the mrna remaining at 1 µM worked out at 98% and the mrna remaining at 10 µM is 20%.

As for `Cn1cc(-c2ccc3c(c2)C(=O)N(c2ccc(N4CCN[C@@H](C(C)(C)C)C4)nn2)C3)cn1` [Compound 399, (S)-2-(6-(3-(tert-butyl)piperazin-1-yl)pyridazin-3-yl)-6-(1-methyl-1H-pyrazol-4-yl)isoindolin-1-one], the mrna remaining at 1 µM came to 65% and the mrna remaining at 10 µM came out at 43%.

With `Cn1ncc(-c2cnc3c(c2)C(=O)N(c2ccc(OC4CC(C)(C)NC5(CCC5)C4)nn2)C3)n1` (centres unmarked) [Compound 601, 6-(6-((6,6-dimethyl-5-azaspiro[3.5]nonan-8-yl)oxy)pyridazin-3-yl)-3-(2-methyl-2H-1,2,3-triazol-4-yl)-6,7-dihydro-5H-pyrrolo[3,4-b]pyridin-5-one], the mrna remaining at 1 µM was 117% and the mrna remaining at 10 µM is 82%.

Consider `Cc1nc(C)c(-c2cnc3c(c2)C(=O)N(c2ccc(O[C@@H]4C[C@]5(C)CC[C@](C)(C4)N5)nn2)C3)s1` [Compound 194, 6-(6-(((1R,3r,5S)-1,5-dimethyl-8-azabicyclo[3.2.1]octan-3-yl)oxy)pyridazin-3-yl)-3-(2,4-dimethylthiazol-5-yl)-6,7-dihydro-5H-pyrrolo[3,4-b]pyridin-5-one], for which the mrna remaining at 1 µM was 224% and the mrna remaining at 10 µM turned out to be 92%.

As to `Cc1nc(C)c(-c2cc3c(cn2)CN(c2ccc(N(C)[C@H]4C[C@]5(C)CC[C@](C)(C4)N5)nn2)C3=O)s1` [Compound 62, 2-(6-(((1R,3s,5S)-1,5-dimethyl-8-azabicyclo[3.2.1]octan-3-yl)(methyl)amino)pyridazin-3-yl)-6-(2,4-dimethylthiazol-5-yl)-2,3-dihydro-1H-pyrrolo[3,4-c]pyridin-1-one], the EC50 is 690 nM, the mrna remaining at 1 µM was determined as 18% and the mrna remaining at 10 µM is 8%.

Consider `CC[C@]12CC[C@](CC)(C[C@@H](Oc3ccc(N4Cc5cnc(-c6cn(C)nc6C)cc5C4=O)nn3)C1)N2` [Compound 100, 2-(6-(((1R,3s,5S)-1,5-diethyl-8-azabicyclo[3.2.1]octan-3-yl)oxy)pyridazin-3-yl)-6-(1,3-dimethyl-1H-pyrazol-4-yl)-2,3-dihydro-1H-pyrrolo[3,4-c]pyridin-1-one], for which the mrna remaining at 1 µM turned out to be 65% and the mrna remaining at 10 µM was 11%.

In the case of `Cc1nn(C)nc1-c1cc(F)c2c(c1)C(=O)N(c1ccc(N3CCCNCC3)nn1)C2` [Compound 669, 2-(6-(1,4-diazepan-1-yl)pyridazin-3-yl)-6-(2,5-dimethyl-2H-1,2,3-triazol-4-yl)-4-fluoroisoindolin-1-one], the mrna remaining at 1 µM amounted to 97% and the mrna remaining at 10 µM amounted to 42%.

On to `CN(c1ncc(N2Cc3ccc(-c4cnn(C)n4)cc3C2=O)nn1)[C@H]1C[C@]2(C)CC[C@](C)(C1)N2` [Compound 429, 2-(3-(((1R,3s,5S)-1,5-dimethyl-8-azabicyclo[3.2.1]octan-3-yl)(methyl)amino)-1,2,4-triazin-6-yl)-6-(2-methyl-2H-1,2,3-triazol-4-yl)isoindolin-1-one], for which the mrna remaining at 1 µM was 102% and the mrna remaining at 10 µM stood at 52%.

For the molecule `Cc1nn(C)cc1-c1cc2c(cn1)CN(c1ccc(O[C@H]3C[C@]4(C)CC[C@](C)(C3)N4C)nn1)C2=O` [Compound 94, 6-(1,3-dimethyl-1H-pyrazol-4-yl)-2-(6-(((1R,3s,5S)-1,5,8-trimethyl-8-azabicyclo[3.2.1]octan-3-yl)oxy)pyridazin-3-yl)-2,3-dihydro-1H-pyrrolo[3,4-c]pyridin-1-one], the mrna remaining at 1 µM amounted to 106% and the mrna remaining at 10 µM amounted to 79%.

For `CN(c1ccc(N2Cc3ncc(-c4cnn(CC(C)(C)O)c4)nc3C2=O)nn1)[C@H]1C[C@]2(C)CC[C@](C)(C1)N2` [Compound 625, 6-(6-(((1R,3s,5S)-1,5-dimethyl-8-azabicyclo[3.2.1]octan-3-yl)(methyl)amino)pyridazin-3-yl)-3-(1-(2-hydroxy-2-methylpropyl)-1H-pyrazol-4-yl)-6,7-dihydro-5H-pyrrolo[3,4-b]pyrazin-5-one], the mrna remaining at 1 µM stood at 81% and the mrna remaining at 10 µM was found to be 108%.

For `Cc1nn(C)nc1-c1cnc2c(n1)C(=O)N(c1ccc(N(C)[C@H]3C[C@]4(C)CC[C@](C)(C3)N4)nn1)C2` [Compound 590, 3-(2,5-dimethyl-2H-1,2,3-triazol-4-yl)-6-(6-(((1R,3s,5S)-1,5-dimethyl-8-azabicyclo[3.2.1]octan-3-yl)(methyl)amino)pyridazin-3-yl)-6,7-dihydro-5H-pyrrolo[3,4-b]pyrazin-5-one], a half-maximal effect (EC50) was put at 569 nM, the mrna remaining at 1 µM turned out to be 24% and the mrna remaining at 10 µM was 9%.

As to `Cc1nn(C)cc1-c1cnc2c(c1)C(=O)N(c1ccc(O[C@H]3C[C@@]4(C)CC[C@](C)(N4)[C@H]3F)nn1)C2` [Compound 181, 3-(1,3-dimethyl-1H-pyrazol-4-yl)-6-(6-(((1S,2R,3S,5R)-2-fluoro-1,5-dimethyl-8-azabicyclo[3.2.1]octan-3-yl)oxy)pyridazin-3-yl)-6,7-dihydro-5H-pyrrolo[3,4-b]pyridin-5-one], the mrna remaining at 1 µM is 92% and the mrna remaining at 10 µM was 103%.

Turning to `Cc1nn(C)nc1-c1cc(F)c2c(c1)C(=O)N(c1ccc(N3C[C@@H](C)NC[C@@H]3C)nn1)C2` [Compound 674, 6-(2,5-dimethyl-2H-1,2,3-triazol-4-yl)-2-(6-((2S,5R)-2,5-dimethylpiperazin-1-yl)pyridazin-3-yl)-4-fluoroisoindolin-1-one], the mrna remaining at 1 µM came to 98% and the mrna remaining at 10 µM turned out to be 49%.

Take `COc1cc(-c2nn(C)nc2Cl)cc2c1CN(c1ccc(N(C)[C@H]3C[C@]4(C)CC[C@](C)(C3)N4)nn1)C2=O` [Compound 686, 6-(5-chloro-2-methyl-2H-1,2,3-triazol-4-yl)-2-(6-(((1R,3s,5S)-1,5-dimethyl-8-azabicyclo[3.2.1]octan-3-yl)(methyl)amino)pyridazin-3-yl)-4-methoxyisoindolin-1-one]: the mrna remaining at 1 µM turned out to be 109% and the mrna remaining at 10 µM was 26%.

For `Cc1nn(C)nc1-c1cnc2c(c1)C(=O)N(c1ccc(N3C[C@@H](C)NC[C@@H]3C)nn1)C2` [Compound 613, 3-(2,5-dimethyl-2H-1,2,3-triazol-4-yl)-6-(6-((2S,5R)-2,5-dimethylpiperazin-1-yl)pyridazin-3-yl)-6,7-dihydro-5H-pyrrolo[3,4-b]pyridin-5-one], the mrna remaining at 1 µM came out at 130% and the mrna remaining at 10 µM amounted to 91%.

With `C[C@@H]1CN(c2ccc(N3Cc4c(F)cc(-c5nn(C)nc5Cl)cc4C3=O)nn2)C[C@H](C)N1` [Compound 636, 6-(5-chloro-2-methyl-2H-1,2,3-triazol-4-yl)-2-(6-((3S,5R)-3,5-dimethylpiperazin-1-yl)pyridazin-3-yl)-4-fluoroisoindolin-1-one], the mrna remaining at 1 µM turned out to be 95% and the mrna remaining at 10 µM came to 41%.
